# Like-named read-outs stand apart in the source and are kept apart here.
# Target: unphosphorylated-BTK kinase domain (UP-BTK), GST-tagged human BTK (389-659aa) (Homo sapiens (Human), UniProt Q06187)
# Assay: BTK kinase Lanthascreen binding assay
# Conditions: pIC50 = negative log of the IC50 in molar; for IC50: read-out: BTK_I_binding pIC50 (converted)
# Description: BTK Kinase Lanthascreen Binding Assay:
# A BTK kinase lanthascreen binding assay monitors compound binding to unphosphorylated-BTK kinase domain (UP-BTK), by competing with a fluorescent labeled tracer. […] Data were analyzed using Xlfit™ version 5.3 from ID Business Solutions (Guildford), Microsoft Excel add-in. pIC50 refers to the negative log of the IC50 in molar
# [1] = 60 minutes incubation, 50 nM Tracer 236
# [2] = unphosphorylated-BTK kinase domain, 50 nM Tracer 236, 60 minutes
# [3] = Lanthascreen tracer competition, 60 minutes incubation
# unphosphorylated-BTK kinase domain (UP-BTK), GST-tagged human BTK (389-659aa), sequence (Q06187 389-659): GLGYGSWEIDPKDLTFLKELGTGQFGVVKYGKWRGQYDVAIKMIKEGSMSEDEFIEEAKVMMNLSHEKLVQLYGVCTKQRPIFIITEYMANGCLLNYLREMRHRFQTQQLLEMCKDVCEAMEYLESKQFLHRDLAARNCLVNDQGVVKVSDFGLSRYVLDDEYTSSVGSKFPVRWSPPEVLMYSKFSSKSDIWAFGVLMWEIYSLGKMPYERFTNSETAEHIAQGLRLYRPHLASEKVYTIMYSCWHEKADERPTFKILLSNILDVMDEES
SMILES,BTK_I_binding pIC50 [1],BTK_I_binding pIC50 [2],further results
"Cc1cc(Oc2cccc(COc3ccccc3C#N)c2)ccc1N1C(=O)Nc2c(C(=O)N[C@@H]3CCCN(C)C3)sc3nccc1c23 (mixture of isomers) [Example 24, (R)-5-(4-(3-((2-Cyanophenoxy)methyl)phenoxy)-2-methylphenyl)-N-(1-methylpiperidin-3-yl)-4-oxo-4,5-dihydro-3H-1-thia-3,5,8-triazaacenaphthylene-2-carboxamide]",7.7,,
"CCOC(C)(C)C=C(C#N)C(=O)N1CCC[C@@H](NC(=O)c2sc3nccc4c3c2NC(=O)N4c2ccc(Oc3ccccc3)cc2C)C1 (mixture of isomers) [Example 29, (R,EZ)—N-(1-(2-Cyano-4-ethoxy-4-methylpent-2-enoyl)piperidin-3-yl)-5-(2-methyl-4-phenoxyphenyl)-4-oxo-4,5-dihydro-3H-1-thia-3,5,8-triazaacenaphthylene-2-carboxamide]",,,IC50 [1]: 50.1 nM
"Cc1cc(Oc2ccccc2)ccc1N1C(=O)Nc2c(C(=O)NC3CC[C@@H](C)N(C)C3)sc3nccc1c23 (mixture of isomers) [Example 92, N-(1,6-Dimethylpiperidin-3-yl)-5-(2-methyl-4-phenoxyphenyl)-4-oxo-4,5-dihydro-3H-1-thia-3,5,8-triazaacenaphthylene-2-carboxamide]",6.8,,
"Cc1cc(Oc2ccccc2)ccc1N1C(=O)Nc2c(C(=O)NC3CC[C@H](C)NC3)sc3nccc1c23 (mixture of isomers) [Example 153, 5-(2-Methyl-4-phenoxyphenyl)-N-((6S)-6-methylpiperidin-3-yl)-4-oxo-4,5-dihydro-3H-1-thia-3,5,8-triazaacenaphthylene-2-carboxamide]",6.8,,
"Cc1cc(Oc2ccccc2)ccc1N1C(=O)Nc2c(C(=O)NC3CC[C@@H](C)NC3)sc3nccc1c23 (mixture of isomers) [Example 173, 5-(2-Methyl-4-phenoxyphenyl)-N-((6R)-6-methylpiperidin-3-yl)-4-oxo-4,5-dihydro-3H-1-thia-3,5,8-triazaacenaphthylene-2-carboxamide]",,,IC50 [1]: 158 nM
"CCO/C=C/C(=O)N1CCC[C@@H](NC(=O)c2sc3nccc4c3c2NC(=O)N4c2ccc(Oc3ccccc3)cc2C)C1 (mixture of isomers) [Example 221, (R,E)-N-(1-(3-Ethoxyacryloyl)piperidin-3-yl)-5-(2-methyl-4-phenoxyphenyl)-4-oxo-4,5-dihydro-3H-1-thia-3,5,8-triazaacenaphthylene-2-carboxamide]",6.9,,
"COC=C(C#N)C(=O)N1CCC[C@@H](NC(=O)c2sc3nccc4c3c2NC(=O)N4c2ccc(Oc3ccccc3)cc2C)C1 (mixture of isomers) [Example 231, (R,EZ)—N-(1-(2-Cyano-3-methoxyacryloyl)piperidin-3-yl)-5-(2-methyl-4-phenoxyphenyl)-4-oxo-4,5-dihydro-3H-1-thia-3,5,8-triazaacenaphthylene-2-carboxamide]",6.8,,
"Cc1cc(Oc2ccccc2)ccc1N1C(=O)Nc2c(C(=O)N[C@@H]3CCCN(C(=O)C(Cl)=CC4CC4)C3)sc3nccc1c23 (mixture of isomers) [Example 402, (R,EZ)—N-(1-(2-Chloro-3-cyclopropylacryloyl)piperidin-3-yl)-5-(2-methyl-4-phenoxyphenyl)-4-oxo-4,5-dihydro-3H-1-thia-3,5,8-triazaacenaphthylene-2-carboxamide]",,6.5,
"C=CC(=O)N1CCC[C@@H](NC(=O)c2sc3nccc4c3c2NC(=O)N4c2cnc(CC(C)C)cc2C)C1 (mixture of isomers) [Example 671, (R)—N-(1-Acryloylpiperidin-3-yl)-5-(6-isobutyl-4-methylpyridin-3-yl)-4-oxo-4,5-dihydro-3H-1-thia-3,5,8-triazaacenaphthylene-2-carboxamide]",,,IC50 [3]: 25.1 nM
Cc1cc(Oc2ccccc2)ncc1N1C(=O)Nc2c(C(=O)N[C@@H]3COC[C@@H]3N)sc3nccc1c23 (racemic) [Example 707],,,IC50 [3]: 200 nM
"Cc1ccc(Oc2ccccc2)cc1N1C(=O)Nc2c(C(=O)N[C@@H]3CCCN(C(=O)/C(C#N)=C/C4CC4)C3)sc3nccc1c23 (racemic) [Example 875, (E)-N-(1-(2-Cyano-3-cyclopropylacryloyl)piperidin-3-yl)-5-(2-methyl-5-phenoxyphenyl)-4-oxo-4,5-dihydro-3H-1-thia-3,5,8-triazaacenaphthylene-2-carboxamide]",,,BTK_I_binding pIC50 [3]: 7.2
"C=CC(=O)N1C[C@H](F)C[C@@H](NC(=O)c2sc3nccc4c3c2NC(=O)N4c2ccc(Oc3ccccc3)cc2C)C1 (relative stereo) [Example 499, N-((3R,5R)-1-Acryloyl-5-fluoropiperidin-3-yl)-5-(*S)-(2-methyl-4-phenoxyphenyl)-4-oxo-4,5-dihydro-3H-1-thia-3,5,8-triazaacenaphthylene-2-carboxamide]",,7.9,
"C=CC(=O)N1C[C@H](NC(=O)c2sc3nccc4c3c2NC(=O)N4c2ccc(Oc3ccccc3)cc2C)[C@@H](O)C1 (relative stereo) [Example 523, N-((3S,4S)-1-Acryloyl-4-hydroxypyrrolidin-3-yl)-5-(*S)-(2-methyl-4-phenoxyphenyl)-4-oxo-4,5-dihydro-3H-1-thia-3,5,8-triazaacenaphthylene-2-carboxamide]",,7.5,
"O=C(N[C@@H]1CCNC[C@H]1O)c1sc2nccc3c2c1NC(=O)N3c1ccc(Oc2ccccc2)cc1 (relative stereo) [Example 615, N-(trans-3-Hydroxypiperidin-4-yl)-4-oxo-5-(4-phenoxyphenyl)-4,5-dihydro-3H-1-thia-3,5,8-triazaacenaphthylene-2-carboxamide]",,,IC50 [3]: 794 nM
"CC(C)(C)OC(=O)N1CC[C@@H](NC(=O)c2sc3nccc4c3c2NC(=O)N4c2ccc(Oc3ccccc3)cc2)[C@H](O)C1 (relative stereo) [Example 617, trans-tert-Butyl 3-hydroxy-4-(4-oxo-5-(4-phenoxyphenyl)-4,5-dihydro-3H-1-thia-3,5,8-triazaacenaphthylene-2-carboxamido)piperidine-1-carboxylate]",,,IC50 [3]: 1000 nM
"O=C(N[C@@H]1CCNC[C@@H]1O)c1sc2nccc3c2c1NC(=O)N3c1ccc(Oc2ccccc2)cc1 (relative stereo) [Example 659, N-(cis-3-Hydroxypiperidin-4-yl)-4-oxo-5-(4-phenoxyphenyl)-4,5-dihydro-3H-1-thia-3,5,8-triazaacenaphthylene-2-carboxamide]",,,IC50 [3]: 251 nM
"C=CC(=O)N1C[C@H](O)C[C@@H](NC(=O)c2sc3nccc4c3c2NC(=O)N4c2ccc(Oc3ccccc3)cc2C)C1 (single isomer, unassigned) [Example 2, N-((3R,5S)-1-Acryloyl-5-hydroxypiperidin-3-yl)-5-(*S)-(2-methyl-4-phenoxyphenyl)-4-oxo-4,5-dihydro-3H-1-thia-3,5,8-triazaacenaphthylene-2-carboxamide]",8.2,,
"C=CC(=O)N1CC[C@@H](NC(=O)c2sc3nccc4c3c2NC(=O)N4c2ccc(Oc3ccccc3)cc2C)C1 (single isomer, unassigned) [Example 5, (R)—N-(1-Acryloylpyrrolidin-3-yl)-5-(*S)-(2-methyl-4-phenoxyphenyl)-4-oxo-4,5-dihydro-3H-1-thia-3,5,8-triazaacenaphthylene-2-carboxamide]",8.1,,

# More lines, main results first:
BTK_I_binding pIC50 [1],BTK_I_binding pIC50 [2],SMILES,further results
7.2,,"COCCNC(C)(C)C=C(C#N)C(=O)N1CCC[C@@H](NC(=O)c2sc3nccc4c3c2NC(=O)N4c2ccc(Oc3ccccc3)cc2C)C1 (mixture of isomers) [Example 234, (R,EZ)—N-(1-(2-Cyano-4-((2-methoxyethyl)amino)-4-methylpent-2-enoyl)piperidin-3-yl)-5-(2-methyl-4-phenoxyphenyl)-4-oxo-4,5-dihydro-3H-1-thia-3,5,8-triazaacenaphthylene-2-carboxamide]",
,5.9,"Cc1cc(Oc2ccccc2)ccc1N1C(=O)Nc2c(C(=O)N[C@@H]3CCCN(C(=O)C(=CC4CC4)C(F)(F)F)C3)sc3nccc1c23 (mixture of isomers) [Example 313, (R,EZ)—N-(1-(3-Cyclopropyl-2-(trifluoromethyl)acryloyl)piperidin-3-yl)-5-(2-methyl-4-phenoxyphenyl)-4-oxo-4,5-dihydro-3H-1-thia-3,5,8-triazaacenaphthylene-2-carboxamide]",
,7.0,"CO[C@@H]1CNC[C@H](NC(=O)c2sc3nccc4c3c2NC(=O)N4c2ccc(Oc3ccccc3)cc2C)C1 (relative stereo) [Example 467, N-((3R,5S)-5-Methoxypiperidin-3-yl)-5-(*S)-(2-methyl-4-phenoxyphenyl)-4-oxo-4,5-dihydro-3H-1-thia-3,5,8-triazaacenaphthylene-2-carboxamide]",
,5.9,"CO[C@@H]1CNC[C@H](NC(=O)c2sc3nccc4c3c2NC(=O)N4c2ccc(Oc3ccccc3)cc2C)C1 (relative stereo) [Example 468, N-((3R,5S)-5-Methoxypiperidin-3-yl)-5-(*R)-(2-methyl-4-phenoxyphenyl)-4-oxo-4,5-dihydro-3H-1-thia-3,5,8-triazaacenaphthylene-2-carboxamide]",
,7.6,"C=CC(=O)N1C[C@@H](O)[C@@H](NC(=O)c2sc3nccc4c3c2NC(=O)N4c2ccc(Oc3ccccc3)cc2C)C1 (relative stereo) [Example 489, N-((3S,4R)-1-Acryloyl-4-hydroxypyrrolidin-3-yl)-5-(*S)-(2-methyl-4-phenoxyphenyl)-4-oxo-4,5-dihydro-3H-1-thia-3,5,8-triazaacenaphthylene-2-carboxamide]",

# Reference: patent US10800792B2, “Inhibitors of Bruton's tyrosine kinase and method of their use” (JANSSEN PHARMACEUTICA NV, priority 2015, dated 2020)
